Measured values: patent publication US20060229299A1, “5ht2c Receptor antagonists in the treatment of schizophrenia” (priority 2003, published 2006)
Like-named read-outs stand apart in the source and are kept apart here.

Assays:
[1] = design: key: 1-high; 2-medium; 3-low probability; details: Table 4A; grading of probability from literature reports; cited from earlier work
[2] = design: key: 1-high; 2-medium; 3-low probability; details: Table 4A; grading of probability from literature reports; cited from earlier work; remark: listed apart in the source
[3] = design: key to Weight Gain: 1-high; 2-medium; 3-low probability; details: cited from earlier work; for Weight Gain: Table 4A, grading of probability from literature reports
α1-adrenoceptor [4] = details: human, expressed as KD; cited from earlier work
5-HT7 receptor [5] = target: 5-HT7 receptor (Rattus norvegicus, UniProt P32305); details: cited from earlier work
5-HT7 receptor (Rattus norvegicus, UniProt P32305), sequence (P32305 whole entry): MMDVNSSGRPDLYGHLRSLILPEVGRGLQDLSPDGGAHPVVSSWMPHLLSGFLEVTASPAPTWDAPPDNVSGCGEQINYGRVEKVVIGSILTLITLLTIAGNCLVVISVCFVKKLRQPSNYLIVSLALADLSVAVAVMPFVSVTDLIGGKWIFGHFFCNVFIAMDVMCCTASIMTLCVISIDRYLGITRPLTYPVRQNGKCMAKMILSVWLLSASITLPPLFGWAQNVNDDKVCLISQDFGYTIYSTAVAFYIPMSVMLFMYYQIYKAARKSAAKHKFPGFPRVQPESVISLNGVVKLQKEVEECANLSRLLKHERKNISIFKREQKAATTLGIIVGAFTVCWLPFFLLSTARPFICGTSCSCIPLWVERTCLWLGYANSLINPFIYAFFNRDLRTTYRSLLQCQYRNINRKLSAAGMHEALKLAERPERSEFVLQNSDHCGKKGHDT

D1 dopamine receptor [6] = target: D1 dopamine receptor (Homo sapiens, UniProt P21728); details: cited from earlier work
D1 dopamine receptor (Homo sapiens, UniProt P21728), sequence (P21728 whole entry): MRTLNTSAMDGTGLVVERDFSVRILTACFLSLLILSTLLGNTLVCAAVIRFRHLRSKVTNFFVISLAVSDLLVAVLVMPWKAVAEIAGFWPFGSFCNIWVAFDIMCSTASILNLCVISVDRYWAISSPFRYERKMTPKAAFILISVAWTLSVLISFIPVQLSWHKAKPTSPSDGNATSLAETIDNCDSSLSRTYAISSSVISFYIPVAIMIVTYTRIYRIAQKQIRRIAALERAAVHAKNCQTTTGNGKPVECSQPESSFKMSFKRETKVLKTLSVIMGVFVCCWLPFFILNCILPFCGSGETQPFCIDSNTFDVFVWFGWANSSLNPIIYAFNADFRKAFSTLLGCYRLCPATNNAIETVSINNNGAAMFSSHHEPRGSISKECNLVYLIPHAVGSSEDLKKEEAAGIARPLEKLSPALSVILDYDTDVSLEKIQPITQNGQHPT

5-HT6 receptor = 5-HT6 receptor (Rattus norvegicus, UniProt P31388); details: cited from earlier work
5-HT6 receptor, sequence (P31388 whole entry): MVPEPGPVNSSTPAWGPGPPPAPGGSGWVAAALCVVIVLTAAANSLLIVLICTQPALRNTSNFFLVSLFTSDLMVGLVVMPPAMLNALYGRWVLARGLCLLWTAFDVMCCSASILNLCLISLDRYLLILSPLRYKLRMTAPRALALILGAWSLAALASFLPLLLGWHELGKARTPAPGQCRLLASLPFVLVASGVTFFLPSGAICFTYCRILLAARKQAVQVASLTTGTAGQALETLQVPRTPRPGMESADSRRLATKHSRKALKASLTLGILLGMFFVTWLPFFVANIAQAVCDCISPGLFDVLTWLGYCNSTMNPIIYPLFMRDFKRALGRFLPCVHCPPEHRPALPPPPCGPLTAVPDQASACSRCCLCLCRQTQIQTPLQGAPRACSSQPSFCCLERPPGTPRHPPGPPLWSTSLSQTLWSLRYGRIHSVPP

[7] = target: mACh, muscarinic acetylcholine receptor; details: rat; cited from earlier work
[8] = target: D2-S (short form of D2 receptor) (Homo sapiens, UniProt P14416); details: cited from earlier work
D2-S (short form of D2 receptor), sequence (P14416 1-414 isoform P14416-2): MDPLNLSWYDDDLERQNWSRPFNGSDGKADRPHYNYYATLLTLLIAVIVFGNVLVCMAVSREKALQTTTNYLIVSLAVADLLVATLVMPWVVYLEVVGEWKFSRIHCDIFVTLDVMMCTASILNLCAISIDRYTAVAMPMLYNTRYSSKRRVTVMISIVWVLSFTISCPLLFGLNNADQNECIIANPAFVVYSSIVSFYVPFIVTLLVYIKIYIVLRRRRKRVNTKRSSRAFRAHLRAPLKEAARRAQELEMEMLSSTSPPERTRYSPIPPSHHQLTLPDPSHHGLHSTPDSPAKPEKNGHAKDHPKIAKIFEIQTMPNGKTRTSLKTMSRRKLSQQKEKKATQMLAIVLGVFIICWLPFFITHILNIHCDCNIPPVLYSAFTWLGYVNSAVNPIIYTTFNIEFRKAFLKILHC

5-HT2C receptor [9] = target: T1, 5-HT2C receptor (Sus scrofa, UniProt K7GSR7); details: pig; cited from earlier work
T1 sequence (K7GSR7 1-457): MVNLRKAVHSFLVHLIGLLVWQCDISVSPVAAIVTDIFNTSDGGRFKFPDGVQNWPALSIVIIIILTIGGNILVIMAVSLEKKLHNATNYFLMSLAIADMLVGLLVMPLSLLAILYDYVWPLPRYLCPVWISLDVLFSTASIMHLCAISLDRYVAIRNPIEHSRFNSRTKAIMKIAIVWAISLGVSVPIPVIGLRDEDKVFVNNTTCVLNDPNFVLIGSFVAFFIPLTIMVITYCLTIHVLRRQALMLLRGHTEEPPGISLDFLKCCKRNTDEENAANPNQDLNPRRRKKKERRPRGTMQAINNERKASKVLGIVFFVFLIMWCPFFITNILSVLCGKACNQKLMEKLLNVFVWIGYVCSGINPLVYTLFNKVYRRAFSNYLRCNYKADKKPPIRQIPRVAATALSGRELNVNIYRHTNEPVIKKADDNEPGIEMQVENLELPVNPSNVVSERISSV

D4 dopamine receptor = target: T2, D4 dopamine receptor (Homo sapiens, UniProt P21917); details: human; cited from earlier work
T2 sequence (P21917 1-419): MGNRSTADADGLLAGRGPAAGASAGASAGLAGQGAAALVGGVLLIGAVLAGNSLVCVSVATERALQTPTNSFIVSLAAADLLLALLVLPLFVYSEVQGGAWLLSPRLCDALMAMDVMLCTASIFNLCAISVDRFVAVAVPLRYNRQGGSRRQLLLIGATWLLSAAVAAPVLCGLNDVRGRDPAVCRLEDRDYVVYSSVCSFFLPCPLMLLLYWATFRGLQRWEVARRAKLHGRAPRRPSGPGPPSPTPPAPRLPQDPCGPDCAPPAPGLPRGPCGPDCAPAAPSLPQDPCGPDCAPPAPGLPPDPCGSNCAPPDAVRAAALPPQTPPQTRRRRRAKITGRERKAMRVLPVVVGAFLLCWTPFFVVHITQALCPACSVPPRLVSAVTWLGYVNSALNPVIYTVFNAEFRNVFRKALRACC

5-HT3 receptor = target: T3, 5-HT3 receptor (Mus musculus, UniProt P23979); details: cited from earlier work
T3 sequence (P23979 24-489): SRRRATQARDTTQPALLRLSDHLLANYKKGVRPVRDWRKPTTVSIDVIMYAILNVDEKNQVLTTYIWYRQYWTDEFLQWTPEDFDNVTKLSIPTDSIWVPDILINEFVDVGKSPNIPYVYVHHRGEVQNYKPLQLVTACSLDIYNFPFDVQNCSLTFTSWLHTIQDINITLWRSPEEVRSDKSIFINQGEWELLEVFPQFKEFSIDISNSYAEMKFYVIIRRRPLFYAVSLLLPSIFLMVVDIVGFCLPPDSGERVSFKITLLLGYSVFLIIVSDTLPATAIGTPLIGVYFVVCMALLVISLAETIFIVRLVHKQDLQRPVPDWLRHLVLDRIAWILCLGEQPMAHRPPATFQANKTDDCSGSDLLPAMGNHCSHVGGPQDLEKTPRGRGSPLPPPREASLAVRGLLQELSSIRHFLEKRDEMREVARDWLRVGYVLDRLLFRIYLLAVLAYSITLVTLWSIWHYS

[10] = target: D2-L (long form of D2 receptor) (Homo sapiens, UniProt P14416); details: cited from earlier work
D2-L (long form of D2 receptor), sequence (P14416 whole entry): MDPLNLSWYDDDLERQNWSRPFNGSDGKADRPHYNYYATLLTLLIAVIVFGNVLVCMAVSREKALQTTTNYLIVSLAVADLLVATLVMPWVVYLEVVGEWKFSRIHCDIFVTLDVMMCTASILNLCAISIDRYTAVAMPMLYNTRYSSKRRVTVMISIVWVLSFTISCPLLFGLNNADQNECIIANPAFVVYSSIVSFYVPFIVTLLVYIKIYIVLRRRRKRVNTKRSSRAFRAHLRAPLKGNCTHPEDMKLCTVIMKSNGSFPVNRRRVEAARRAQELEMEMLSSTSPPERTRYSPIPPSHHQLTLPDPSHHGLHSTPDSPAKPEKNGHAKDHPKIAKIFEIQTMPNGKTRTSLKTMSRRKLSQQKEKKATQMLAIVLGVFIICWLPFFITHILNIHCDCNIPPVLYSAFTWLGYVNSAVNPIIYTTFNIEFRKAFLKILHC

α1-adrenoceptor [11] = details: species for α1 not given; cited from earlier work
sigma, σ receptor = details: guinea-pig; cited from earlier work
α2-adrenoceptor = details: cited from earlier work
5-HT7 receptor [12] = target: 5-HT7 receptor (Mus musculus, UniProt P32304); details: cited from earlier work
5-HT7 receptor (Mus musculus, UniProt P32304), sequence (P32304 whole entry): as the sequence (P32305 whole entry) above, with G27R, P39S, L53P, P279S, S438C counted along it

[13] = test system: 5-HT2C receptor relative to 5-HT2A and D2 receptors; test: Relative 5-HT2C affinity (formula I, sum of 5-HT2C/5-HT2A and 5-HT2C/D2 affinity ratios)
5-HT1A receptor = target: T4, 5-HT1A receptor (Rattus norvegicus, UniProt P19327); details: cited from earlier work
T4 sequence (P19327 1-422): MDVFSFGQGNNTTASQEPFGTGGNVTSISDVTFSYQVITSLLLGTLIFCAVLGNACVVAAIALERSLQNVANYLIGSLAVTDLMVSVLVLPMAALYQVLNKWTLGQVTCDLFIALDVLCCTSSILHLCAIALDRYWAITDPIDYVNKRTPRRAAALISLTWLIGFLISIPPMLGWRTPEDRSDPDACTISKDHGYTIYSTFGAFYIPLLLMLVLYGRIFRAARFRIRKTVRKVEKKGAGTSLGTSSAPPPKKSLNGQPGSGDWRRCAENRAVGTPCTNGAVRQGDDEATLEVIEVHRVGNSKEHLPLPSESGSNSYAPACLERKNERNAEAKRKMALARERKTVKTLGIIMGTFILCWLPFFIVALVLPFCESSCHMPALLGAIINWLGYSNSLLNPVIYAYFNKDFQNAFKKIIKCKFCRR

D2 receptor = D2 receptor (Homo sapiens, UniProt P14416); details: Table 3; expressed as pKi or pKd values; known affinities; cited from earlier work
D2 receptor, sequence (P14416 whole entry): as the sequence (P14416 whole entry) above

5-HT2A receptor = 5-HT2A receptor (Homo sapiens, UniProt P28223); details: Table 3; expressed as pKi or pKd values; known affinities; cited from earlier work
5-HT2A receptor, sequence (P28223 whole entry): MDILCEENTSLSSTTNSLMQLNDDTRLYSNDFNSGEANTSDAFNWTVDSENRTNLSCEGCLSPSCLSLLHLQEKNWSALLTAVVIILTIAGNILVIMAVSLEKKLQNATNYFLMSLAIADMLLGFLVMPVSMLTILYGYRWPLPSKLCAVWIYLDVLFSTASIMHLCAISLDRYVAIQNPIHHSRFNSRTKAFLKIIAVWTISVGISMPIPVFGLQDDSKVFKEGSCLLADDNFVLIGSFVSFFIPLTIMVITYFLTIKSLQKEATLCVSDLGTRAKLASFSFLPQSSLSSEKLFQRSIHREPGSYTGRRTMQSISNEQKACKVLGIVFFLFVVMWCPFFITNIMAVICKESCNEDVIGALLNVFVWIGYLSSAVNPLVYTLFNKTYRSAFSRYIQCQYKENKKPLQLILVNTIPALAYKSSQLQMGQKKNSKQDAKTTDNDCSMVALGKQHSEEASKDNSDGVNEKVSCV

5-HT2C receptor [14] = target: T5, 5-HT2C receptor (Homo sapiens, UniProt P28335); details: Table 3; expressed as pKi or pKd values; known affinities; cited from earlier work
T5 sequence (P28335 33-458): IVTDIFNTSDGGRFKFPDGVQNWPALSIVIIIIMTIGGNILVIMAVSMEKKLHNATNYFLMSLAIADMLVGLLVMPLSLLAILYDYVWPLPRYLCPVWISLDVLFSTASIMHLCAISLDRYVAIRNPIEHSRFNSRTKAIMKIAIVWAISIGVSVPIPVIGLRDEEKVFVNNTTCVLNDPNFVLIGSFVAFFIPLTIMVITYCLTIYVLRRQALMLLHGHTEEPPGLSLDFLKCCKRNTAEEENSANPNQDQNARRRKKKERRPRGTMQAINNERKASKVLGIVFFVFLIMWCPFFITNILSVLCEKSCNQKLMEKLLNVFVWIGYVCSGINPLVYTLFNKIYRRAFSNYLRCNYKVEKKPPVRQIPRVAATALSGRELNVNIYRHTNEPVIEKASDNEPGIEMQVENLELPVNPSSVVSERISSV

[15] = design: key: 1-high; 2-medium; 3-low probability; details: Table 4A; grading of probability from literature reports; cited from earlier work; remark: listed apart in the source
α1-adrenoceptor [16] = details: rat; cited from earlier work
D1 dopamine receptor [17] = target: D1 dopamine receptor (Rattus norvegicus, UniProt P18901); details: cited from earlier work
D1 dopamine receptor (Rattus norvegicus, UniProt P18901), sequence (P18901 whole entry): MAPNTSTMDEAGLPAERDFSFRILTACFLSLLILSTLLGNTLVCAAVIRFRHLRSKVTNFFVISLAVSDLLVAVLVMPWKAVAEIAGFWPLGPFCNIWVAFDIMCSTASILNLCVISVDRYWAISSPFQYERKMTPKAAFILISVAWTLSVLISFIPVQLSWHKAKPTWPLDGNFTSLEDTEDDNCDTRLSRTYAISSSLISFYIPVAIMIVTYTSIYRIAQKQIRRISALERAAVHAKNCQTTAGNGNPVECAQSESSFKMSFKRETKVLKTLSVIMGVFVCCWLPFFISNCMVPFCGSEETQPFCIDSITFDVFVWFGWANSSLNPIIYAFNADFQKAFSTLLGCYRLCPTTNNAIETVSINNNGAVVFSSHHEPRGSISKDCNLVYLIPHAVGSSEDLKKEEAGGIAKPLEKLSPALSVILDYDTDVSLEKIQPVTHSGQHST

[18] = Table 3, calculated from known 5-HT2C/5-HT2A/D2 affinities

Compound: Cc1cc2c(s1)Nc1ccccc1N=C2N1CCN(C)CC1 [Olanzapine]
- Increases prolactin levels [1]: 2
- Extra-pyramidal side effects [2]: 1-2
- Weight Gain [3]: 2
- weight gain (in words) ([3]; text b109, literature reports): do cause weight gain

Compound: CN1CCN(C2=Nc3cc(Cl)ccc3Nc3ccccc32)CC1 [Clozapine]
- Extra-pyramidal side effects [2]: 3

Compound: CN(C)CCCN1c2ccccc2Sc2ccc(Cl)cc21 [Chlorpromazine]
- α1 affinity value (−log KD) (α1-adrenoceptor [4]): 8.6^16

Compound: CCN1CCCC1CNC(=O)c1cc(S(N)(=O)=O)ccc1OC (stereo not drawn) [Sulpiride]
- 5-HT7 affinity value (−logKi) (5-HT7 receptor [5]): <5.3^2
- D1 affinity value (−logKi) (D1 dopamine receptor [6]): <5^9
- 5-HT6 affinity value (−logKi) (5-HT6 receptor): <5.3^2

Compound: O=C1NCN(c2ccccc2)C12CCN(CCCC(c1ccc(F)cc1)c1ccc(F)cc1)CC2 [Fluspirilene]
- mACh affinity value (−logKi) [7]: <5.3^6
- D2-S affinity value (−logKi) [8]: 8.9^6
- 5-HT2C affinity value (−logKi) (5-HT2C receptor [9]): 5.7^6
- D4 affinity value (−logKi) (D4 dopamine receptor): 8.4^6
- 5-HT3 affinity value (−logKi) (5-HT3 receptor): <5.3^6
- D2-L affinity value (−logKi) [10]: 9.2^6
- α1 affinity value (−logKi) (α1-adrenoceptor [11]): 7.0^6
- sigma affinity value (−logKi) (sigma, σ receptor): 6.8^6
- α2 affinity value (−logKi) (α2-adrenoceptor; species for α2 not stated): <5.3^6
- 5-HT7 affinity value (−logKi) (5-HT7 receptor [12]): 7.5^6
- (2C/2A) + (2C/D2) ([13]; Table 2, sum of affinity ratios from data of Table 1): 1.33
- 5-HT1A affinity value (−logKi) (5-HT1A receptor): 7.3^6

Compound: CSc1ccc2c(c1)N(CCC1CCCCN1C)c1ccccc1S2 (stereo not drawn) [Thioridazine]
- D4 affinity value (−logKi) (D4 dopamine receptor): 7.9^12

Compound: CC(C)N1CCN(CCN2CCC(c3cn(-c4ccc(F)cc4)c4cc(Cl)ccc34)CC2)C1=O [LU-26042]
- D2 Affinity (D2 receptor): 6.9
- 5-HT2A Affinity (5-HT2A receptor): 8.8
- 5-HT2C Affinity (5-HT2C receptor [14]): 7.8
- Formula I Affinity Ratio [13]: 2.02

Compound: O=C1Cc2cc(CCN3CCN(c4nsc5ccccc45)CC3)c(Cl)cc2N1 [Ziprasidone]
- 5-HT2C affinity value (−logKi) (5-HT2C receptor [9]): 7.9^6
- 5-HT7 affinity value (−logKi) (5-HT7 receptor [5]): 7.6^14
- 5-HT3 affinity value (−logKi) (5-HT3 receptor): 5.5^6
- Increases prolactin levels [1]: 3
- Extra-pyramidal side effects [2]: 2
- sigma affinity value (−logKi) (sigma, σ receptor): <5.3^6
- Improvement negative symptoms [15]: 2
- α2 affinity value (−logKi) (α2-adrenoceptor; no reference given): <6
- 5-HT7 affinity value (−logKi) (5-HT7 receptor [12]): 8.3^6
- α1 affinity value (−logKi) (α1-adrenoceptor [16]): 8.0^14
- Weight Gain [3]: 3
- D1 affinity value (−logKi) (D1 dopamine receptor [17]): 6.3^14
- 5-HT1A affinity value (−logKi) (5-HT1A receptor): 7.9^6
- 5-HT6 affinity value (−logKi) (5-HT6 receptor): 6.9^14

Compound: CN(C)CCO[C@]1(c2ccccc2)C[C@H]2CC[C@]1(C)C2(C)C.O=C(O)/C=C/C(=O)O [Deramciclane, (1R,2S,4R)-(−)-2-[2-(N,N-dimethylamino)-ethoxy]-2-phenyl-1,7,7-trimethylbicyclo[2.2.1]heptane]
- D2 Affinity (D2 receptor): 7
- 5-HT2A Affinity (5-HT2A receptor): 8
- 5-HT2C Affinity (5-HT2C receptor [14]): 7.8
- Formula I Affinity Ratio [13, 18]: 2.09

Compound: COc1cc(OC)c(C(=O)CCCCN2CCC3(CC2)NC(=O)NC3=O)cc1NS(=O)(=O)c1ccc(C(F)(F)F)cc1 [RS-102221]
- 5-HT2A Affinity (5-HT2A receptor): 5.8
- 5-HT2C Affinity (5-HT2C receptor [14]): 8.2
- Formula I Affinity Ratio [13, 18]: 2.78

Compound: CCCN1CCC[C@H]2c3c(OC)cccc3OC[C@@H]21.Cl (stereo in doubt) [CGS-18102A, 10-methoxy-4-propyl-1,2,3,4a,5,10b-hexahydro-4H-[1]-benzopyrano[3,4-b]pyridine hydrochloride]
- D2 Affinity (D2 receptor): 7.4
- 5-HT2A Affinity (5-HT2A receptor): 6.6
- Formula I Affinity Ratio [13, 18]: 2.06

Compound: CN(C)CCSc1nc2ccccc2cc1-c1ccccc1 [ICI-169369]
- D2 Affinity (D2 receptor): 6.5
- 5-HT2A Affinity (5-HT2A receptor): 7.7
- 5-HT2C Affinity (5-HT2C receptor [14]): 8
- Formula I Affinity Ratio [13, 18]: 2.27
